Experimental findings from patent US20230159467A1, “NOVEL COMPOUNDS USEFUL IN THE TREATMENT AND/OR PREVENTION OF A DISEASE, DISORDER OR CONDITION ASSOCIATED WITH ANGIOTENSIN II” (Vicore Pharma AB, priority 2020, published 2023) are described below.

A short description of data set [1]: Stability in human liver microsomes. In kind it is in vitro ADME. The settings on record: half-life. Here is the method: (§1) Stability in liver microsomes. Human, mouse and rat liver microsomes were used to assess the metabolic stability for the compounds. Metabolic stability was determined in 0.5 mg/mL human, mouse or rat liver microsomes at a compound concentration of 1 μM in 100 mM potassium phosphate buffer (pH 7.4) in a total incubation volume of 500 μL by Eurofins. The assay matrix was: human liver microsomes: mixed gender and pool of 50, rat liver microsomes: male, Sprague-Dawley, pool of 100 or more and mouse liver microsomes: male,CD-1, pool of 250 or more. Final microsomal protein concentration: 0.1mg/mL. The test concentration was 0.1 μM with 0.01% DMSO, 0.25% acetonitrile and 0.25% methanol by default. […] The reaction was initiated by adding NADPH-generating system and was incubated for 0, 15, 30, 45, and 60 min. The reaction was stopped by transferring the incubation mixture to acetonitrile/methanol. Samples were then mixed and centrifuged. Four reference compounds were tested in each assay. Propranolol and imipramine are relatively stable, whereas verapamil and terfenadine are readily metabolized inhuman liver microsomes. Samples were analyzed by HPLC-MS/MS using selected reaction monitoring. The HPLC system consisted of a binary LC pump with autosampler, a C-18 column, and a gradient. Peak areas corresponding to the test compound were recorded. The compound remaining was calculated by comparing the peak area at each time point to time zero. The half-life was calculated from the slope of the initial linear range of the logarithmic curve of compound remaining (%) vs. time, assuming first order kinetics. In addition, the intrinsic clearance (Clint) was calculated.^19,20

In another data set the target is CYP2D6 (Homo sapiens, UniProt P10635). In words: CYP450 inhibition assay, pooled human liver microsomes, dextromethorphan substrate. The settings on record: for inhibition at 10 min, 10 µM: both, human, pooled human liver microsomes, pH 7.4, probe dextromethorphan. On the technique in general: Liver microsomes are a subcellular fraction often used to study metabolism.
Chain of CYP2D6 (P10635 whole entry): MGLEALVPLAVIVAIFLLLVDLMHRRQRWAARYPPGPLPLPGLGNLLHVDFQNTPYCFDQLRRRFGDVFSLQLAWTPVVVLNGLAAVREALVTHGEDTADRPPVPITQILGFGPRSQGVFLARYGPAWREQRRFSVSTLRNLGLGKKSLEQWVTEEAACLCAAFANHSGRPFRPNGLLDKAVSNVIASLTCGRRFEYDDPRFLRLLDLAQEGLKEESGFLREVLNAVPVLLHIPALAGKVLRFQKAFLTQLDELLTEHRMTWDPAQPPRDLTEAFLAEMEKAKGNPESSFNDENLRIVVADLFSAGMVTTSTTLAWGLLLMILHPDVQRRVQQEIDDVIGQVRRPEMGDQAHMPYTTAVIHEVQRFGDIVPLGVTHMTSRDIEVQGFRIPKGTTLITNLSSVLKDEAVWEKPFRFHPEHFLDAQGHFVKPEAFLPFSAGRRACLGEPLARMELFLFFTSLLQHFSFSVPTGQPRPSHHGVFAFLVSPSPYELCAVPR

A short description of data set [2]: Kinetic solubility in PBS pH 7.4. In kind it is physicochemical. The settings on record: Dulbecco's PBS buffer, aqueous buffer, kinetic from dmso stock; PBS pH 7.4, 24 h room temperature, 2% DMSO. As to the method: Kinetic solubility. Dulbecco's PBS buffer was used (NaCl 137 mM, KCl 2.7 mM, Na2HPO4 8.1 mM, KH2PO4 1.5 mM with pH 7.4). The test compound is prepared at 200 μM in the PBS buffer from a 10 mM DMSO stock solution. The final DMSO concentration is 2%. The buffer samples were mixed thoroughly followed by incubation at room temperature for 24 h. At the end of the incubation, the buffer samples were centrifuged and supernatants were then injected for the HPLC analysis. A calibration standard of the test compound was prepared at 200 μM in methanol/water (3/2, v/v) from a 10 mM DMSO stock solution on the day of HPLC analysis. The analysis was conducted by HPLC-UV/VIS with photodiode array detection, with monitoring at 205, 230, 260, and 300 nm wavelengths. The HPLC system consisted of a C18 column using a gradient of A and B (A=12 mM ammonium formate, 6 mM formic acid in water, pH 4.0, B=6 mM ammonium formate, 3 mM formic acid acetonitrile/water (9/1, v/v)). Reference compounds used were metoprolol, rifampicin, ketoconazole, phenytoin, haloperidol, simvastatin, diethylstilbestrol, and tamoxifen, ranking from fully soluble (200 μM) to poorly soluble (<1μM). […] The range of the assay was approximately 0.5 μM to 200 μM. The chromatographic purity (%) was determined as the peak area of the principal peak relative to the total integrated peak areas in the HPLC chromatogram of the calibration standard.

Another data set concerns the target CYP2C9 (Homo sapiens, UniProt P11712). In words: CYP450 inhibition assay, pooled human liver microsomes, diclofenac substrate. The settings on record: both, human, pooled human liver microsomes, pH 7.4, probe diclofenac.
The nature of data set [3]: Stability in rat liver microsomes. As to conditions: half-life. In kind it is in vitro ADME. Here is the method: as §1
For a further data set, the target named is T1, CYP1A (Homo sapiens, UniProt P05177).
T1 sequence (P05177 1-516): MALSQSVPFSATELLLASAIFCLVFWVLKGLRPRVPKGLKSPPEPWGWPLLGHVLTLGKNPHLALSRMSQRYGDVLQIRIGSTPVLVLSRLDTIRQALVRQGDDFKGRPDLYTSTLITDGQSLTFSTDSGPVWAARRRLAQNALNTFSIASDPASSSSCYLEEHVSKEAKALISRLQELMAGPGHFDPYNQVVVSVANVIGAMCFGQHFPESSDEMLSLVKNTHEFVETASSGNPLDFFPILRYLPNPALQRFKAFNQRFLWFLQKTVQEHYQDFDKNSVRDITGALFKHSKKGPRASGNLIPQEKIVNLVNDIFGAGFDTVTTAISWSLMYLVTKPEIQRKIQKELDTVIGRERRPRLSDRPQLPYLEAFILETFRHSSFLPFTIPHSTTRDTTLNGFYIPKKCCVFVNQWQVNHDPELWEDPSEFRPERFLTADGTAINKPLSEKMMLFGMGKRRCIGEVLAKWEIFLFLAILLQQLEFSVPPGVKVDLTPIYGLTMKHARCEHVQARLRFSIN
In words: CYP450 inhibition assay, pooled human liver microsomes, phenacetin substrate. The settings on record: for inhibition at 10 min, 10 µM: both, human, pooled human liver microsomes, pH 7.4, probe phenacetin.

Another data set concerns the target CYP2C19 (Homo sapiens, UniProt P33261). In words: CYP450 inhibition assay, pooled human liver microsomes, omeprazole substrate. As to conditions: both, human, pooled human liver microsomes, pH 7.4, probe omeprazole.
A short description of data set [4]: Stability in mouse liver microsomes. The settings on record: half-life. It counts as in vitro ADME. Here is the method: as §1
The target of the next data set is T2, CYP2B6 (Homo sapiens, UniProt P20813).
T2 sequence (P20813 1-491): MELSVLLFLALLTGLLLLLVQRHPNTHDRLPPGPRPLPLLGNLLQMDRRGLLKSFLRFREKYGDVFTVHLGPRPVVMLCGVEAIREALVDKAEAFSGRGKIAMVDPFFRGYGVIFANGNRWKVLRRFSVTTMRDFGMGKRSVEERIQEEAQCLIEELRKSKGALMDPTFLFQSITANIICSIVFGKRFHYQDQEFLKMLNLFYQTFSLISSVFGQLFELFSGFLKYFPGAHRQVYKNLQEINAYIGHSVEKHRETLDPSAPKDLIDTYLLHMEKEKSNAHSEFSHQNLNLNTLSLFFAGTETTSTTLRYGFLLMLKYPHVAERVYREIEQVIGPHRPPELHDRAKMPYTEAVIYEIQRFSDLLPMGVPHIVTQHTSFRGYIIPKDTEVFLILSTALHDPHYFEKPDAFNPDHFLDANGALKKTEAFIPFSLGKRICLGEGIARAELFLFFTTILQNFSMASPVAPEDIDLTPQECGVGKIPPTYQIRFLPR
In words: CYP450 inhibition assay, pooled human liver microsomes, bupropion substrate. As to conditions: for inhibition at 10 min, 10 µM: both, human, pooled human liver microsomes, pH 7.4, probe bupropion.

Data set [5] relates to CYP3A. In words: CYP450 inhibition assay, pooled human liver microsomes, midazolam substrate. The settings on record: for inhibition at 10 min, 10 µM: both, human, pooled human liver microsomes, pH 7.4, probe midazolam.
Data set [6] deals with CYP3A. In words: CYP450 inhibition assay, pooled human liver microsomes, testosterone substrate. The settings on record: at 10 μM; for inhibition at 10 min, 10 µM: both, human, pooled human liver microsomes, pH 7.4, probe testosterone, CYP 450 Inhibition CYP3A testosterone.
Description: The compound was tested at a single concentration (10 μM) with 0.1% DMSO. […] The reaction was initiated by adding a NADPH-generating system. The reaction was allowed for 10 min and stopped by transferring the reaction mixture to acetonitrile/methanol. Samples were mixed and centrifuged. Supernatants were used for HPLC-MS/MS of the respective metabolite. The activity of human cytochrome P450 (CYP) enzymes were determined by following the formation of a metabolite of the probe substrate. The following enzymes were evaluated for inhibition using the listed reference substrates and reference inhibitors:
CYP1A—phenacetin (reference inhibitor furafylline), CYP2B6—bupropion (reference inhibitor clopidogre), CYP2C8-amodiaquine (reference inhibitor montelukast), CYP2C9—diclofenac (reference inhibitor sulfaphenazole), CYP2C19—omeprazole (reference inhibitor oxybutynin), CYP2D6—dextromethorphan (reference inhibitor quinidine), CYP3A—midazolam (reference inhibitor ketoconazol) and CYP3A—testosterone (reference inhibitor ketoconazol). The reference inhibitors were tested in each assay at multiple concentrations to obtain an IC50 value. Peak areas corresponding to the metabolite were recorded. The percent of control activity was calculated by comparing the peak area in the presence of the test compound to the control samples containing the same solvent. Subsequently, the percent inhibition was calculated by subtracting the percent control activity from 100. The IC50 value (concentration causing a half-maximal inhibition of the control value) was determined by non-linear regression analysis of the concentration-response curve using the Hill equation.
A further data set has as its target T3, CYP2C8 (Homo sapiens, UniProt P10632).
T3 sequence (P10632 1-490): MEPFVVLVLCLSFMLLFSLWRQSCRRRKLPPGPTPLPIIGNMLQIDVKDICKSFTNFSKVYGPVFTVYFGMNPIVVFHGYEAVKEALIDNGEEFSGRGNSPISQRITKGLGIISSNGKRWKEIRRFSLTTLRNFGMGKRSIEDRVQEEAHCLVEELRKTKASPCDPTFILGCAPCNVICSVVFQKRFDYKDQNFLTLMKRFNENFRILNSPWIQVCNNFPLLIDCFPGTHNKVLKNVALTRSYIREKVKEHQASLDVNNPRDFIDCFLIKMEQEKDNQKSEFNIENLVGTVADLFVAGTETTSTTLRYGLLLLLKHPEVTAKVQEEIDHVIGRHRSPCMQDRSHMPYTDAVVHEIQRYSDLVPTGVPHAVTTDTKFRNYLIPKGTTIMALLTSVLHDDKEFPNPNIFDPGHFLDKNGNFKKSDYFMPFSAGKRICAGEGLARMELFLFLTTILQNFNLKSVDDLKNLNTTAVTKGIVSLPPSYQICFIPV
The data set can be described thus: CYP450 inhibition assay, pooled human liver microsomes, amodiaquine substrate. As to conditions: for inhibition at 10 min, 10 µM: both, human, pooled human liver microsomes, pH 7.4, probe amodiaquine.

Chain of CYP2C19 (P33261 whole entry): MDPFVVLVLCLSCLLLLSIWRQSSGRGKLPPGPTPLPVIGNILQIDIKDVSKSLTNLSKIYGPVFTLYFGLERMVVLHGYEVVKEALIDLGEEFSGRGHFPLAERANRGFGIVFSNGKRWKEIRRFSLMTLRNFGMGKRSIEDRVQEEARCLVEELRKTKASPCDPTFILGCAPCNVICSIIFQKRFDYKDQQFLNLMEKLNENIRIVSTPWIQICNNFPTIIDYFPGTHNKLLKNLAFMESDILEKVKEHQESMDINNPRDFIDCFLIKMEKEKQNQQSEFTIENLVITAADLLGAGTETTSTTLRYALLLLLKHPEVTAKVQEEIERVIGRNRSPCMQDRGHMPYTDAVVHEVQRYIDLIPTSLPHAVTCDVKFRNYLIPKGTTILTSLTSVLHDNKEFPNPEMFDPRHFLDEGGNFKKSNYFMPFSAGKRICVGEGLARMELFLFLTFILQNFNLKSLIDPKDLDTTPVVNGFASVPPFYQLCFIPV
Chain of CYP2C9 (P11712 whole entry): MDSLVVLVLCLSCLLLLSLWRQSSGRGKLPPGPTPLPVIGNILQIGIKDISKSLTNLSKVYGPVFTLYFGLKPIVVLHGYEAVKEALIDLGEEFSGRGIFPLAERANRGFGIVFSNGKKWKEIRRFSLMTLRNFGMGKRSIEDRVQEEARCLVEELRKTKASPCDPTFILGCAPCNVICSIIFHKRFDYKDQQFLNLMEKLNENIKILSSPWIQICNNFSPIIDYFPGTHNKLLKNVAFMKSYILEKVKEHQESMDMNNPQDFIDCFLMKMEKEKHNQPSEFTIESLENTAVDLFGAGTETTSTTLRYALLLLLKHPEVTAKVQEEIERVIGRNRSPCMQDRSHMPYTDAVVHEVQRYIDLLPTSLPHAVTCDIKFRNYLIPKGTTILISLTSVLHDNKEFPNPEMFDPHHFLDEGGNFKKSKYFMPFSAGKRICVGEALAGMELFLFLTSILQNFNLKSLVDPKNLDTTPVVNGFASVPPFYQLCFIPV

One may read the inhibition as the change of the read-out against control, counted positive when it falls. What is called kinetic solubility is solubility judged after dilution from a stock solution rather than from solid. For the molecule `CCCCOC(=O)[N-]S(=O)(=O)c1ccc(CC(C)C)cc1-c1ccc(Cn2ccnc2C(C)(C)C)cc1.[K+]` [Example 2B, Potassium ((4′-((2-(tert-butyl)-1H-imidazol-1-yl)methyl)-5-isobutyl-[1,1′-biphenyl]-2-yl)sulfonyl)(butoxycarbonyl)amide], the “Stability in liver microsomes HLM” value in data set [1] was 11 min. Further, the inhibition at 10 min, 10 µM against CYP2D6 is 15%; against CYP2C9, 91%; at CYP1A it was 4.5%; on CYP2C19, 71%; against CYP2B6, 57%; in the data set on CYP3A [5], 16%. Further, the inhibition at 10 min, 10 µM came to 27% with CYP3A [6] and 81% against CYP2C8. In data set [2], this molecule showed a solubility (kinetic) at 24 h of 183 µM. Further, the “Stability in liver microsomes RLM” value in data set [3] worked out at 8 min. For the same molecule, the “Stability in liver microsomes MLM” value in [4] is reported as 10 min.

As for `CCCCOC(=O)[N-]S(=O)(=O)c1ccc(CC(C)C)cc1-c1ccc(Cn2ccnc2C(C)(C)O)cc1.[K+]` [Example 7B, Potassium (butoxycarbonyl)((4′-((2-(2-hydroxypropan-2-yl)-1H-imidazol-1-yl)methyl)-5-isobutyl-[1,1′-biphenyl]-2-yl)sulfonyl)amide], in data set [1], the “Stability in liver microsomes HLM” value turned out to be 28 min. In addition, the inhibition at 10 min, 10 µM against CYP2D6 is 16%; at CYP2C9, 74%; against CYP1A, -50%; against CYP2C19, 52%; on CYP2B6 it was 40%; in the data set on CYP3A [5], -10.7%. The inhibition at 10 min, 10 µM in the data set with CYP3A [6] was 3.1%; against CYP2C8, 68%. Besides, in [2], the solubility (kinetic) at 24 h is greater than 200 µM. For the same molecule, the “Stability in liver microsomes RLM” value in data set [3] is on record as 22 min. For the same molecule, in data set [4], the “Stability in liver microsomes MLM” value came out at 20 min.

Consider `CCCCOC(=O)[N-]S(=O)(=O)c1sc(CC(C)C)cc1-c1ccc(Cn2ccnc2)cc1.[Na+]` [Example 13, Sodium ((3-(4-((1H-imidazol-1-yl)methyl)phenyl)-5-isobutylthiophen-2-yl)sulfonyl)(butoxycarbonyl)amide, reference compound], for which the “Stability in liver microsomes HLM” value in data set [1] amounted to 36 min. The “CYP 450 Inhibition CYP2D6” value on CYP2D6 (at 10 μM) is recorded as 90%. The molecule also displayed a solubility (kinetic) at 24 h in [2] of 198 µM. The “Stability in liver microsomes RLM” value in data set [3] is reported as 20 min. Also, on CYP1A (at 10 μM), the “CYP 450 Inhibition CYP1A” value stood at 89%. The inhibition at 10 min, 10 µM against CYP1A turned out to be 77%; at CYP2C19, 93%; against CYP2B6, 53%; in the data set with CYP3A [6], 84%; at CYP2C8, 69%. Besides, in data set [4], the “Stability in liver microsomes MLM” value came out at 39 min. Further, the “CYP 450 Inhibition CYP2B6” value at CYP2B6 (at 10 μM) was found to be 63%. Also, in the data set with CYP3A [5] (at 10 μM, midazolam substrate), the “CYP 450 Inhibition CYP3A midazolam” value is on record as 93%. Also, the “CYP 450 Inhibition CYP3A testosterone” value with CYP3A [6] came to 90%. The “CYP 450 Inhibition CYP2C8” value at CYP2C8 (at 10 μM) is given as 82%.

With `COC(=O)[N-]S(=O)(=O)c1sc(CC(C)C)cc1-c1ccc(Cn2ccnc2C(C)(C)C)cc1.[K+]` [Example 12B, Potassium ((3-(4-((2-(tert-butyl)-1H-imidazol-1-yl)methyl)phenyl)-5-isobutylthiophen-2-yl)sulfonyl)(methoxycarbonyl)amide], the “Stability in liver microsomes HLM” value in data set [1] was greater than 60 min. Also, the inhibition at 10 min, 10 µM against CYP2D6 was 1.6%; on CYP2C9, 29%; against CYP1A, 8.3%; at CYP2C19, 36%; on CYP2B6, 25%; in the data set on CYP3A [5], -11.6%. Moreover, the figures for the inhibition at 10 min, 10 µM with CYP3A [6] and at CYP2C8 were 6.8% and 73%, respectively. In addition, in data set [2], the solubility (kinetic) at 24 h is greater than 200 µM. The “Stability in liver microsomes RLM” value in [3] is recorded as greater than 60 min. For the same molecule, the “Stability in liver microsomes MLM” value in [4] was found to be 39 min.
